Reference: the METLIN SMRT retention time set (Domingo-Almenara et al. 2019)

Test: gradient 5% acetonitrile 3 min, to 50% in 2 min, to 85% in 15 min, held 3 min, 100 µL/min
Conditions: column: Zorbax Extend-C18 2.1 x 50 mm; eluents: water / acetonitrile, 0.1% formic acid
How it was run: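 A Zorbax Extend-C18 column (2.1 × 50 mm, 1.8 μm) run at 100 μL/min with water and acetonitrile, both containing 0.1% formic acid, separated mixtures of ~100 pure standards. The HPLC was coupled to a quadrupole time-of-flight mass spectrometer operated in positive and negative ionization mode, with dead and dwell volumes of 40 μL and 900 μL. Each retention time was taken from a computationally picked adduct peak that was then manually inspected.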

| SMILES | RP-LC retention time [s] |
| --- | --- |
| CCOc1ccc(NC(=O)N2CCCC(Cn3c(C4CC4)nc4cccnc43)C2)cc1 (stereo not drawn) | 689 |
| CCn1cc(-c2nc(C(=O)NCc3cc(F)cc(F)c3)cs2)c2cccnc21 | 1030 |
| COc1cccc(CNC(=O)Cn2cnc3c(sc4nc(-c5ccccc5)ccc43)c2=O)c1 | 975 |
| C=CCNc1ncnc2sc(SC)nc12 | 855 |
| Cc1cccnc1NC(=O)C1CCN(S(=O)(=O)c2cc(C(=O)N3CCOCC3)cs2)CC1 | 606 |
| COc1ccc(CCNc2nc(-c3ccc(OC)c(OC)c3)cs2)cc1OC | 728 |
| CCC1CCCCN1C(=O)Cc1c(C)nc2nc(-c3ccc(C(C)(C)C)cc3)nn2c1C (stereo not drawn) | 1160 |
| O=C(c1nccc2ccccc12)N1CCC(c2noc(C3CC3)n2)C1 (stereo not drawn) | 745 |
| COc1cc(NC(=O)c2ccccc2)c(OC)cc1NC(=O)C=C(C)C | 887 |
| CCOc1ccccc1-c1noc(Cn2cnc3c(cnn3-c3ccc(C)c(Cl)c3)c2=O)n1 | 1230 |
| Cc1noc(C)c1CCC(=O)N1CCCn2ccnc2C1C(C)C (stereo not drawn) | 590 |
| O=c1c2sccc2n(Cc2nc(-c3ccccc3)no2)c(=O)n1-c1ccccc1 | 932 |
| Cn1cc2nc(SCc3cc(F)cc(F)c3)n(Cc3ccc(F)cc3)c(=O)c2n1 | 1070 |
| CC[C@H](C)C(=O)O[C@H]1CCC=C2C=C[C@H](C)[C@H](CC[C@@H](O)C[C@@H](O)CC(=O)O)[C@H]21 | 910 |
| CC(C)NC(=O)c1ccc(-c2nnc3ccc(NC(=O)C4CCC4)cn23)cc1 | 724 |
| CC(=O)Nc1ccc(OC(=O)Oc2ccc(NC(C)=O)cc2)cc1 | 724 |
| Cc1nnc([C@@H]2CC(F)(F)CN2C(=O)c2nn(C)c3ccccc23)o1 | 788 |
| COc1ccc(CNc2nc3ccncc3n(C(C)C)c2=O)c(OC)c1 | 681 |
| CC(CCNC(=O)c1nnc(-c2ccc(S(=O)(=O)N3CCCC3)cc2)o1)N1CCCCCC1 (stereo not drawn) | 644 |
| Cn1ncc(N2CCCC(CC(=O)NCc3cccs3)C2)cc1=O (stereo not drawn) | 676 |
| O=C(NCc1cc(F)cc(F)c1)C1CCCN(c2nc3ccsc3c(=O)n2Cc2ccccc2)C1 (stereo not drawn) | 1050 |
| CN1C(=O)C2(CCN(C(=O)C3CCCCC3)CC2)c2ccccc21 | 899 |
| CCN(CC)S(=O)(=O)c1ccc2c(c1)cc(C(=O)NCCCN1CCCC(C)C1)n2C (stereo not drawn) | 691 |
| CCn1nc(C)c(CCNC(=O)c2cc3c(=O)n(CCOC)ccc3nc2C)c1C | 576 |
| Cc1ccc(-c2noc(Cn3nc(-c4ccc5c(c4)OCO5)ccc3=O)n2)cc1C | 1060 |

| SMILES | RP-LC retention time [s] |
| --- | --- |
| Cc1cccc(C)c1-n1ccn(Cc2nc(-c3ccc(Cl)cc3)no2)c(=O)c1=O | 978 |
| CN(C)c1ccc(C(=O)Nc2cc(-c3ccccn3)no2)cc1 | 812 |
| COc1ccc(CCc2nc3nccc(-c4cccs4)n3n2)cc1 | 932 |
| CCCN1C(=O)COc2cc(-c3noc(C(=O)N4CCCC4)n3)ccc21 | 885 |
| Cc1cc(C)cc(Nc2nc(C)cc(=O)n2CC(=O)Nc2ccc(Br)cc2)c1 | 966 |
| Cc1ccc(Nc2c(-c3ccc(C(=O)O)cc3)nc3cnccn23)c(Br)c1 | 1080 |
| CCC(CO)NCc1ccc(-c2cccc(Cl)c2)o1 (stereo not drawn) | 658 |
| CC(C)c1nc2c(NC(=O)c3ccsc3)cccn2n1 | 866 |
| Cc1ccc(-c2noc(Cn3c(=O)n(Cc4ccccc4Cl)c(=O)c4sccc43)n2)cc1C | 1290 |
| COc1cc(OC)c(NC(=O)Cn2c(N(C)Cc3ccccc3)nc(C)cc2=O)cc1Cl | 818 |
| Cc1ncc2c(n1)C[C@@H]1CC[C@H]2N1C(=O)Cc1ccccc1 | 648 |
| CC(C)C(=O)Nc1ccc(-c2nc(-c3ccc(Cl)cc3)no2)cc1 | 1200 |
| CCCn1cc(CCNC(=O)Nc2c(C)cccc2C)c2cccnc21 | 736 |
| CC[C@@]1(O)C[C@H](OC2CC(N(C)C)C(O)C(C)O2)c2c(cc3c(c2O)C(=O)c2c(O)ccc(O)c2C3=O)[C@H]1C(=O)OC (stereo partly drawn) | 717 |
| CC1CCN(C(=O)CCC(=O)N2CCCN(c3nc4cccnc4s3)CC2)CC1 | 698 |
| NC(=O)C(c1ccccc1)(c1ccccc1)[C@@H]1CCN(CCc2ccc3c(c2)CCO3)C1 | 740 |
| Cc1cc(=O)n(CC(=O)Nc2ccc3c(c2)OCCO3)c(N2CCCCC2)n1 | 645 |
| CCc1nnc2ccc(-c3noc(-c4cc(Cl)ccc4F)n3)cn12 | 1010 |
| Cc1nnc([C@@H]2CC(F)(F)CN2C(=O)c2n[nH]c3ccccc23)o1 | 666 |
| Cc1ccc(-n2nc(C(=O)N3CCN(c4ccccn4)CC3)c3c4ccccc4n(C)c3c2=O)cc1 | 705 |
| CCOC(=O)c1c(C)[nH]c(CCC(=O)NC2CCCC2)c1C | 780 |
| Cc1cc(C)c2c(N3CCSCC3)nc(C(=O)N3CCCN(C)CC3)nc2n1 | 600 |
| COc1cc(NC(=O)c2[nH]c3cc(C)sc3c2CN2CCOCC2)cc(OC)c1 | 718 |
| COC(=O)c1cnc(N2CCN(c3ccccn3)CC2)c2ccccc12 | 640 |

Other lines, results leading:

| RP-LC retention time [s] | SMILES |
| --- | --- |
| 890 | Cc1oc(C2CCN(S(=O)(=O)c3ccc(F)cc3)CC2)nc1C(=O)N1CCCC1 |
| 939 | CCCn1cc(C2=CCN(C(=O)NCc3ccc(C)cc3)CC2)c2cccnc21 |
| 726 | O=C(Cn1nc2n(c1=O)CCCCC2)Nc1ccc(Br)cc1 |
| 655 | CCOc1ccccc1NC(=O)Cn1nc2n(c1=O)CCCC2 |
| 860 | CCn1c(C(=O)NCCc2ccc(S(N)(=O)=O)cc2)cc2sc(Cl)cc21 |
| 695 | O=C(CCS(=O)(=O)c1ccccc1)Nc1cc(-c2ccccc2)nn1CCO |
| 595 | Cn1cc(CCN2CCC(C(=O)NCc3ccccc3F)CC2)c2cccnc21 |
| 1020 | Cc1c(Cl)cccc1S(=O)(=O)N1CCC(C(=O)NCc2csc(-c3cccs3)n2)CC1 |
| 1220 | CCOc1ccc(-n2cc(C(=O)OC(C)C)c3ccccc3c2=O)cc1 |
| 807 | O=S(=O)(Nc1cccnc1)c1ccc(Cl)c(-c2nnc(-c3ccccc3)o2)c1 |
| 774 | Cc1nn(CC(=O)NCCc2ccco2)c(=O)c2c(C)n(-c3ccccc3)nc12 |
| 911 | Cc1ccccc1CNC(=O)CN1C(=O)CCCc2cc(S(=O)(=O)N3CCCCC3)ccc21 |
| 888 | COc1cccc2c1OC1(C)CC2C(S(=O)(=O)c2ccc(C)c(C)c2)C(=O)N1 (stereo not drawn) |
| 852 | COc1ccc(NS(=O)(=O)c2ccc3c(c2)-c2oncc2CO3)c(OC)c1 |
| 778 | CC(C)NC(=O)NCc1ccc2c(c1)N(C(=O)c1ccccc1)C(C)C2 (stereo not drawn) |
| 756 | CCc1ccccc1NS(=O)(=O)c1ccc2c(c1)CCCC(=O)N2 |
| 1030 | O=[N+]([O-])c1cccc(-c2nc(N3CCCCCC3)c3ccccc3n2)c1 |
| 656 | CCCc1ccc(S(=O)(=O)N2CCc3nc[nH]c3C2)cc1 |
| 834 | CC(C(=O)Nc1ccc(F)cc1F)C1CCN(C(=O)Nc2ccccc2)CC1 (stereo not drawn) |
| 616 | Cc1ccccc1-c1nc2ccccc2n1CC(N)=O |

| RP-LC retention time [s] | SMILES |
| --- | --- |
| 715 | Nc1c(C(=O)NCc2ccccc2Cl)nsc1C(=O)N1CCN(c2ccccn2)CC1 |
| 780 | CCN1C(=O)Cc2ccccc2C1C(=O)NCc1ccccc1Br (stereo not drawn) |
| 702 | CC(=O)c1cccc(NC(=O)C2Oc3ccccc3NC2=O)c1 (stereo not drawn) |
| 689 | CCc1ccc(CN2CCn3c(nn(C)c3=O)C2)cc1 |
| 958 | O=C(Cc1csc2nc(-c3cccc(Br)c3)cn12)Nc1ccccc1F |
| 674 | COc1ccccc1CC(=O)Nc1cccn2cnnc12 |
| 598 | CCOCCCNC(=O)c1ccc(-c2ccc3c(c2)CCN3C(C)=O)cc1 |
| 986 | Cc1nn(-c2ccccc2)c(C)c1S(=O)(=O)N1CCC(C(=O)N2CCc3ccccc3C2)CC1 |
| 689 | CCCCCNC(=O)c1ccc2nc(CCc3ccc(NC(=O)C(C)C)cc3)[nH]c2c1 |
| 556 | CCOC(=O)c1ccccc1NC(=O)CN1CCC(Cn2cnc3ccccc32)CC1 |
| 1210 | CSc1ccc(-c2noc(Cn3c(=O)n(CC(C)C)c(=O)c4ccccc43)n2)cc1 |
| 680 | Cc1ccc(C(=O)Nc2ccc(-c3nnc4n3CCCC4)cc2)s1 |
| 672 | Cc1cc(C)c2c(CN3CCN(c4ccccn4)CC3)cc(=O)oc2c1 |
| 659 | CC(C)n1cnnc1CC1CCN(S(=O)(=O)Cc2ccccc2)C1 (stereo not drawn) |
| 906 | Cc1cccc(S(=O)(=O)N2C[C@@H](F)C[C@H]2C(=O)N2CCc3ccccc3C2)c1 |
| 718 | CN1CCCc2cc(C(CNC(=O)C(=O)Nc3ccc4c(c3)OCCO4)N3CCCC3)ccc21 (stereo not drawn) |
| 730 | O=C1NCCCn2cc(S(=O)(=O)N3CCN(c4ccc(F)cc4)CC3)cc21 |
| 1120 | Cc1ccccc1-c1nc(-c2ccc3c(c2)nc(C)c(=O)n3C)no1 |
| 766 | O=S(=O)(c1ccc(F)cc1F)N1CCCC(Cn2c(C3CC3)nc3cccnc32)C1 (stereo not drawn) |
